Values after ≈ are worked out from the molar mass of the structure shown. Where two headings read alike, the source gives them in different places.
Test system: MDRPA
Assay: MIC determination, microdilution broth method;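 further: broth microdilution per NCCLS recommendations, testing Pithecellobium clypearia water or ethanol extracts against multidrug-resistant Pseudomonas aeruginosa, with MIC50 and MIC90 derived statistically from individual MICs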
[1] = MDRPAs P1-P20, single use, EA=P. clypearia 10% ethanol extract
[2] = MDRPAs P1-P20, single use, EA=P. clypearia water extract
[3] = single use, 20 MDRPAs, section of the 10% ethanol extract
[4] = single use, 20 MDRPAs, section of the 60% ethanol extract
[5] = single use, 20 MDRPAs, section of the 95% ethanol extract

Protocol: Determination methods of a Minimal Inhibitory Concentration (MIC) and a Minimum Bactericidal Concentration (MBC) of a test product: the MIC and the MBC of the Pithecellobium clypearia Benth water or ethanol extract to the MDRAB are determined by a microdilution broth method. And it is operated by referring to the microdilution broth method recommended by National Committee for Clinical Laboratory Standards (NCCLS).
By determining the MIC and the MBC of the drug and making statistics of the data to obtain MIC50, MIC90, MBC50 and MBC90, the effect of the MDRA resistance of the drug is evaluated.
Test method: the MDRPA (serial No.: P1-P20) strains are tested and are evaluated with reference to the method in the first embodiment.

NCC[C@H](O)C(=O)N[C@@H]1C[C@H](N)[C@@H](O[C@H]2O[C@H](CN)[C@@H](O)[C@H](O)[C@H]2O)[C@H](O)[C@H]1O[C@H]1O[C@H](CO)[C@@H](O)[C@H](N)[C@H]1O [AMK, Amikacin]
MIC50 [1]: 1 µg/mL (≈ 1.71 µM) | MIC90 [1]: 32 µg/mL (≈ 54.6 µM) | MIC Range [1]: 1 to 256 µg/mL | MIC50 [2]: 1 µg/mL (≈ 1.71 µM) | MIC90 [2]: 32 µg/mL (≈ 54.6 µM) | MIC Range [2]: 1 to 256 µg/mL | MIC50 (Pseudomonas aeruginosa): 1 µg/mL (≈ 1.71 µM) | MIC90 (Pseudomonas aeruginosa): 32 µg/mL (≈ 54.6 µM) | MIC (Pseudomonas aeruginosa, read-out: MIC (single use), strain P1, EA=P. clypearia 10% ethanol extract): 1 µg/mL (≈ 1.71 µM) | MIC (Pseudomonas aeruginosa, read-out: MIC (single use), strain P1, EA=P. clypearia water extract): 1 µg/mL (≈ 1.71 µM) | MIC (Pseudomonas aeruginosa, read-out: MIC (single use), strain P2, EA=P. clypearia 10% ethanol extract): 1 µg/mL (≈ 1.71 µM) | MIC (Pseudomonas aeruginosa, read-out: MIC (single use), strain P2, EA=P. clypearia water extract): 1 µg/mL (≈ 1.71 µM) | MIC (Pseudomonas aeruginosa, read-out: MIC (single use), strain P3, EA=P. clypearia 10% ethanol extract): 4 µg/mL (≈ 6.83 µM) | MIC (Pseudomonas aeruginosa, read-out: MIC (single use), strain P3, EA=P. clypearia water extract): 4 µg/mL (≈ 6.83 µM) | MIC (Pseudomonas aeruginosa, read-out: MIC (single use), strain P4, EA=P. clypearia 10% ethanol extract): 1 µg/mL (≈ 1.71 µM) | MIC (Pseudomonas aeruginosa, read-out: MIC (single use), strain P4, EA=P. clypearia water extract): 1 µg/mL (≈ 1.71 µM) | MIC (Pseudomonas aeruginosa, read-out: MIC (single use), strain P5, EA=P. clypearia 10% ethanol extract): 2 µg/mL (≈ 3.42 µM) | MIC (Pseudomonas aeruginosa, read-out: MIC (single use), strain P5, EA=P. clypearia water extract): 2 µg/mL (≈ 3.42 µM) | MIC (Pseudomonas aeruginosa, read-out: MIC (single use), strain P6, EA=P. clypearia 10% ethanol extract): 256 µg/mL (≈ 437 µM) | MIC (Pseudomonas aeruginosa, read-out: MIC (single use), strain P6, EA=P. clypearia water extract): 256 µg/mL (≈ 437 µM) | MIC (Pseudomonas aeruginosa, read-out: MIC (single use), strain P7, EA=P. clypearia 10% ethanol extract): 1 µg/mL (≈ 1.71 µM) | MIC (Pseudomonas aeruginosa, read-out: MIC (single use), strain P7, EA=P. clypearia water extract): 1 µg/mL (≈ 1.71 µM) | MIC (Pseudomonas aeruginosa, read-out: MIC (single use), strain P8, EA=P. clypearia 10% ethanol extract): 1 µg/mL (≈ 1.71 µM) | MIC (Pseudomonas aeruginosa, read-out: MIC (single use), strain P8, EA=P. clypearia water extract): 1 µg/mL (≈ 1.71 µM) | MIC (Pseudomonas aeruginosa, read-out: MIC (single use), strain P9, EA=P. clypearia 10% ethanol extract): 1 µg/mL (≈ 1.71 µM) | MIC (Pseudomonas aeruginosa, read-out: MIC (single use), strain P9, EA=P. clypearia water extract): 1 µg/mL (≈ 1.71 µM) | MIC (Pseudomonas aeruginosa, read-out: MIC (single use), strain P10, EA=P. clypearia 10% ethanol extract): 4 µg/mL (≈ 6.83 µM) | MIC (Pseudomonas aeruginosa, read-out: MIC (single use), strain P10, EA=P. clypearia water extract): 4 µg/mL (≈ 6.83 µM) | MIC (Pseudomonas aeruginosa, read-out: MIC (single use), strain P11, EA=P. clypearia 10% ethanol extract): 1 µg/mL (≈ 1.71 µM) | MIC (Pseudomonas aeruginosa, read-out: MIC (single use), strain P11, EA=P. clypearia water extract): 1 µg/mL (≈ 1.71 µM) | MIC (Pseudomonas aeruginosa, read-out: MIC (single use), strain P12, EA=P. clypearia 10% ethanol extract): 32 µg/mL (≈ 54.6 µM) | MIC (Pseudomonas aeruginosa, read-out: MIC (single use), strain P12, EA=P. clypearia water extract): 32 µg/mL (≈ 54.6 µM) | MIC (Pseudomonas aeruginosa, read-out: MIC (single use), strain P13, EA=P. clypearia 10% ethanol extract): 2 µg/mL (≈ 3.42 µM) | MIC (Pseudomonas aeruginosa, read-out: MIC (single use), strain P13, EA=P. clypearia water extract): 2 µg/mL (≈ 3.42 µM) | MIC (Pseudomonas aeruginosa, read-out: MIC (single use), strain P14, EA=P. clypearia 10% ethanol extract): 2 µg/mL (≈ 3.42 µM) | MIC (Pseudomonas aeruginosa, read-out: MIC (single use), strain P14, EA=P. clypearia water extract): 2 µg/mL (≈ 3.42 µM) | MIC (Pseudomonas aeruginosa, read-out: MIC (single use), strain P15, EA=P. clypearia 10% ethanol extract): 2 µg/mL (≈ 3.42 µM) | MIC (Pseudomonas aeruginosa, read-out: MIC (single use), strain P15, EA=P. clypearia water extract): 2 µg/mL (≈ 3.42 µM) | MIC (Pseudomonas aeruginosa, read-out: MIC (single use), strain P16, EA=P. clypearia 10% ethanol extract): 256 µg/mL (≈ 437 µM) | MIC (Pseudomonas aeruginosa, read-out: MIC (single use), strain P16, EA=P. clypearia water extract): 256 µg/mL (≈ 437 µM) | MIC (Pseudomonas aeruginosa, read-out: MIC (single use), strain P17, EA=P. clypearia 10% ethanol extract): 1 µg/mL (≈ 1.71 µM) | MIC (Pseudomonas aeruginosa, read-out: MIC (single use), strain P17, EA=P. clypearia water extract): 1 µg/mL (≈ 1.71 µM) | MIC (Pseudomonas aeruginosa, read-out: MIC (single use), strain P18, EA=P. clypearia 10% ethanol extract): 16 µg/mL (≈ 27.3 µM) | MIC (Pseudomonas aeruginosa, read-out: MIC (single use), strain P18, EA=P. clypearia water extract): 16 µg/mL (≈ 27.3 µM) | MIC (Pseudomonas aeruginosa, read-out: MIC (single use), strain P19, EA=P. clypearia 10% ethanol extract): 1 µg/mL (≈ 1.71 µM) | MIC (Pseudomonas aeruginosa, read-out: MIC (single use), strain P19, EA=P. clypearia water extract): 1 µg/mL (≈ 1.71 µM) | MIC (Pseudomonas aeruginosa, read-out: MIC (single use), strain P20, EA=P. clypearia 10% ethanol extract): 2 µg/mL (≈ 3.42 µM) | MIC (Pseudomonas aeruginosa, read-out: MIC (single use), strain P20, EA=P. clypearia water extract): 2 µg/mL (≈ 3.42 µM) | MIC50 [3]: 1 µg/mL (≈ 1.71 µM) | MIC90 [3]: 32 µg/mL (≈ 54.6 µM) | MIC50 [4]: 1 µg/mL (≈ 1.71 µM) | MIC90 [4]: 32 µg/mL (≈ 54.6 µM) | MIC50 [5]: 1 µg/mL (≈ 1.71 µM) | MIC90 [5]: 32 µg/mL (≈ 54.6 µM)

— patent publication US11793849B2, “Method of Chinese herbal medicine extract used for treating multiple diseases caused by drug resistant bacteria infection” (priority 2016, dated 2023)
